Results from paper PMC10115881, “Disrupting the α-synuclein-ESCRT interaction with a peptide inhibitor mitigates neurodegeneration in preclinical models of Parkinson’s disease” (Nature Communications, 2023).

Legend:
Format in all cases: cell-based, human
[1] = test system: WT a-syn-mediated cytotoxicity in HEK293 cells; assay: Pooled lentiviral 7-mer peptide cytotoxicity screen, WT a-syn + MG132; settings: for Reads 0M MG132: Illumina reads, average Phred >30;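 for Slope Norm Reads: reads normalized to total peptide reads per sample with scalar factor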
From the text: (§1) We used a lentiviral library of 50,549 7-mer peptides enriched in PPI motifs[13] on a green fluorescent protein (GFP) scaffold (Fig. 1A). We infected cells in a pooled format and the amino acid sequence of each peptide served as its own barcode. By using a low multiplicity of infection followed by puromycin selection, each infected cell expressed one unique GFP-peptide. We screened for peptides that reduced a-syn-mediated cytotoxicity or a-syn oligomers in parallel (Fig. 1A). To cause cytotoxicity relevant to PD, we induced proteostatic stress in HEK293 cells by inhibiting the proteasome with MG132 and overexpressing human WT a-syn associated with idiopathic PD in one screen or the more toxic mutant A53T a-syn associated with familial PD in a second screen. This combination of a-syn overexpression and pharmacological proteasome inhibition led to death of most cells, with only those that expressed a protective peptide surviving. By extracting genomic DNA from the surviving cells and amplifying the peptide coding sequences, we identified the protective peptides (Fig. 1A). To detect a-syn oligomers, we used a protein fragment complementation assay (PCA) of a-syn oligomerization in HEK293 cells. In this assay, human A53T a-syn was fused to either the C- or N-terminal half of yellow fluorescent protein (YFP). No fluorescence is detectable while a-syn exists in monomers but, when a-syn oligomerizes, the two halves of YFP come in close enough proximity to form a functional, spontaneously fluorescent protein. […] Our screens yielded 10 hits (Table S1). The hit with the most reads (i.e., the most abundant) was the same peptide in all screens: IPIQLKA (named PDpep1) (Table S1). We validated the cytoprotective effects of PDpep1 in HEK293 cells overexpressing WT or A53T a-syn (Figs. 1B, S1A), as well as its ability to reduce WT or A53T a-syn oligomers in a luciferase-based PCA[18]–[20] compared to a scrambled control peptide (Figs. 1C, S1B).
(§2) HEK293T cells (ATCC, CRL-3216) were maintained in DMEM supplemented with 10% FBS and 1% pen/strep/glutamine, and the appropriate selection antibiotics when required. Lentiviruses were made in a 15 cm dish format by transfecting packaging cells (HEK293T) with a three-plasmid system (expression vector, psPAX2 and pMD2.G) and using Polyjet DNA transfection reagent (FroggaBio, SL100688.1). Viral transduction of HEK293T cells were performed with a multiplicity of infection (MOI) of 0.3. Infected cells were selected in puromycin-containing medium to eliminate uninfected cells and three aliquots of cells were collected for sampling of the initial (T0) cell population. Cells were treated with MG132 at concentrations of 0, 10, 25, or 50 µM. For the cell viability screen, surviving cells were collected and gDNA was extracted for identification of peptide inhibitors of cell toxicity. For the inhibition of a-syn aggregation screen, a protein fragment complementation assay (PCA) was used by transfecting cells with split YFP-a-syn constructs following stable expression of the peptides. Cells were sorted based on their YFP fluorescence intensities with a FACSVantage SE cell sorter (BD Bioscience) and gDNA was extracted for identification of peptides.
(§3) Genomic DNA (gDNA) from peptide expressing cells at different time-points was extracted using QIAamp DNA Blood Mini Kit. PCR amplifications of peptides from gDNA in parallel with the lentiviral plasmid library (naïve library) were performed using indexed Illumina PCR primers to incorporate both the Illumina adapter sequences and indexing sequences. Each 50 μl reaction contained 3.2 μg of template, 2× PCR buffer, 2× enhancer solution, 300 μM each dNTP, 900 nM each of Adapter A (5′-[…]-[…]-3′) and Adapter B (5′-[…]-[…]-3′), 1 mM MgSO4, 3.75 units of Platinum Pfx polymerase, and water to 50 μl. […]

[2] = test system: A53T a-syn oligomers; assay: Split-YFP PCA/FACS screen of A53T a-syn oligomers
From the text: as §1, §2
Cells were harvested by trypsin treatment and centrifuged at 500 × g for 5 min. The pellet was resuspended in ice-cold PBS and centrifuged again. The pellet was then resuspended at a concentration of 4 × 10^6 cells/ml in the sorting buffer, which is PBS containing 100 Kunitz DNase I/ml, 10 μg/ml propidium iodide (Sigma), and 2% FBS. The cells were then sent through a 40 μm filter to remove large clumps and loaded into either a FACScan Flow Cytometer (BD Bioscience) for cell analysis or a FACSVantage SE cell sorter (BD Bioscience) for cell sorting. The cells with positive propidium iodide staining (i.e., dead cells) were first eliminated from the analysis. […]

[3] = test system: A53T a-syn expressing HEK293 cells; assay: Cell Titer-Glo cell viability, A53T a-syn expressing cells; settings: A53T a-syn cells
Procedure: Oligonucleotides encoding the specific peptides were synthesized and individually cloned into the pLJM1 nGFP lentiviral vector. HEK293T cells were infected with individual constructs, and cell viability was assessed using Cell Titer-Glo luminescent assay (Promega) at 72 h post infection.
Cells were trypsinized from subconfluent cultures as described earlier, suspended in culture media, and then seeded into triplicate wells of a 96-well plate (100 µl/well) at a density of 1.5 × 10^4 cells per well with standard culture conditions of 5% CO2 at 37 °C. Cells were infected with lentivirus expressing peptide at a MOI of 5 for 72 h or transfected with plasmid for 72 h. Cell Titer-Glo reagent was added to each well (30 µL), according to the manufacturer’s protocol and […].

[4] = test system: A53T a-syn-mediated cytotoxicity in HEK293 cells; assay: Pooled lentiviral 7-mer peptide cytotoxicity screen, A53T a-syn + MG132; settings: for Reads 0M MG132: Illumina reads, average Phred >30;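 for Slope Norm Reads: reads normalized to total peptide reads per sample with scalar factor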
From the text: as §1, §2, §3

| Substance | Reads 10M MG132 [1] | Reads 25M MG132 [1] | Slope Norm Reads [1] | Reads 0M MG132 [1] | Reads GFP High [2] | Reads GFP Inter [2] | Reads GFP Neg [2] | Reads Ratio [2] | Reads 10M MG132 [4] | Reads 25M MG132 [4] | Reads 50M MG132 [4] | Slope Norm Reads [4] | Reads 0M MG132 [4] | other results |
| --- | --- | --- | --- | --- | --- | --- | --- | --- | --- | --- | --- | --- | --- | --- |
| AAYNLCA [library 7-mer, WT screen] | 14 | 19 | 0.07 | 1 | – | – | – | – | – | – | – | – | – | – |
| CFLFQIQ [library 7-mer, oligomers screen] | – | – | – | – | 1 | 0 | 88 | 45.32 | – | – | – | – | – | – |
| CHMP2B 1-178: shorter truncated version of CHMP2B (amino acids 1–178), implicated in FTD | – | – | – | – | – | – | – | – | – | – | – | – | – | Effect on cell survival/viability [3]: increased toxicity |
| CKYRSVL [library 7-mer, A53T screen] | – | – | – | – | – | – | – | – | 7 | 11 | 438 | 1.30 | 5 | – |
| CMVHSAG [library 7-mer, WT screen] | 14 | 33 | 0.08 | 4 | – | – | – | – | – | – | – | – | – | – |
| DWLMVNL [library 7-mer, WT screen] | 13 | 29 | 0.13 | 1 | – | – | – | – | – | – | – | – | – | – |
| ECHTKIR [library 7-mer, oligomers screen] | – | – | – | – | 1 | 0 | 76 | 39.21 | – | – | – | – | – | – |
| EDVNKCV [library 7-mer, A53T screen] | – | – | – | – | – | – | – | – | 6 | 13 | 233 | 0.68 | 6 | – |
| GAAAGGT [library 7-mer, WT screen] | 10 | 17 | 0.06 | 1 | – | – | – | – | – | – | – | – | – | – |
| GWTTVRR [library 7-mer, A53T screen] | – | – | – | – | – | – | – | – | 1 | 29 | 322 | 0.94 | 15 | – |
| LKRDQPV [library 7-mer, oligomers screen] | – | – | – | – | 3 | 0 | 118 | 30.30 | – | – | – | – | – | – |
| LPASMPC [library 7-mer, WT screen] | 16 | 27 | 0.09 | 2 | – | – | – | – | – | – | – | – | – | – |
| LPSKIYK [library 7-mer, oligomers screen] | – | – | – | – | 1 | 0 | 57 | 29.53 | – | – | – | – | – | – |
| LQVGVAV [library 7-mer, WT screen] | 25 | 23 | 0.09 | 1 | – | – | – | – | – | – | – | – | – | – |
| LSGECVP [library 7-mer, WT screen] | 28 | 28 | 0.07 | 3 | – | – | – | – | – | – | – | – | – | – |
| MQMKLSQ [library 7-mer, oligomers screen] | – | – | – | – | 1 | 0 | 70 | 36.15 | – | – | – | – | – | – |
| NNQYSFV [library 7-mer, oligomers screen] | – | – | – | – | 1 | 0 | 58 | 30.04 | – | – | – | – | – | – |
| PAMQIDG [library 7-mer, A53T screen] | – | – | – | – | – | – | – | – | 20 | 53 | 337 | 0.96 | 32 | – |
| PLPTGMG [library 7-mer, WT screen] | 3 | 20 | 0.08 | 1 | – | – | – | – | – | – | – | – | – | – |
| QAELSNS [library 7-mer, A53T screen] | – | – | – | – | – | – | – | – | 8 | 10 | 235 | 0.69 | 6 | – |
| QSPSSAW [library 7-mer, A53T screen] | – | – | – | – | – | – | – | – | 45 | 59 | 284 | 0.82 | 9 | – |
| QSVLQQV [library 7-mer, A53T screen] | – | – | – | – | – | – | – | – | 2 | 12 | 282 | 0.82 | 13 | – |
| QSVVTAP [library 7-mer, A53T screen] | – | – | – | – | – | – | – | – | 6 | 37 | 465 | 1.38 | 8 | – |
| QVSVAQQ [library 7-mer, A53T screen] | – | – | – | – | – | – | – | – | 13 | 120 | 246 | 0.69 | 45 | – |
| RAPSCHL [library 7-mer, WT screen] | 13 | 33 | 0.15 | 1 | – | – | – | – | – | – | – | – | – | – |
| TQKRELT [library 7-mer, oligomers screen] | – | – | – | – | 1 | 0 | 69 | 35.64 | – | – | – | – | – | – |
| VYLDILG [library 7-mer, oligomers screen] | – | – | – | – | 1 | 0 | 59 | 30.55 | – | – | – | – | – | – |
| WPRYPHI [library 7-mer, oligomers screen] | – | – | – | – | 1 | 0 | 92 | 47.36 | – | – | – | – | – | – |
